Measurements reported in patent US10519152B2, “Compounds and their use in treating cancer” (AstraZeneca AB, priority 2017, dated 2019).

Target: T1, Estrogen Receptor (ERα) in MCF-7 human ductal carcinoma breast cell line (Homo sapiens, UniProt P03372)
T1 construct: endogenous in cells; host or cells: MCF-7
T1 sequence (P03372 1-595): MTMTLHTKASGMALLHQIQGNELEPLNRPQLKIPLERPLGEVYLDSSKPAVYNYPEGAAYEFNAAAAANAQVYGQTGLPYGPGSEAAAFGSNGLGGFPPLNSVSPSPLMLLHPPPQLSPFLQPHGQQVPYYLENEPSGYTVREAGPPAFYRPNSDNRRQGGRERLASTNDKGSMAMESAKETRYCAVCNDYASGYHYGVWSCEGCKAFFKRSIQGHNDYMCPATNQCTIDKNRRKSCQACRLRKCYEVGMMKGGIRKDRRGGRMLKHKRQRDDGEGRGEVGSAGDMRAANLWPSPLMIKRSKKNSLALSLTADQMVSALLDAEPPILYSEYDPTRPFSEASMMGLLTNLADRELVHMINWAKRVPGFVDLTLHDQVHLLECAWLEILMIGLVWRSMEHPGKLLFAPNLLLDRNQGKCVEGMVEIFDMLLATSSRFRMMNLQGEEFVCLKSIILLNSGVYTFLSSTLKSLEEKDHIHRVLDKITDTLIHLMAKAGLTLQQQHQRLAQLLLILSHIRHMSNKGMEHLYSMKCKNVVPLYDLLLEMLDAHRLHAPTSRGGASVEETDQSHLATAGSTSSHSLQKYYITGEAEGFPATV
Experiment: MCF-7 ER degradation assay (cell based immuno-fluorescence)
Conditions: MCF-7 cells; for ER degradation ≥ 90% at 0.3 μM: ER degradation by fulvestrant at 0.3 μM is defined as 100%; for DC50: 18-22 hours incubation, 50% reduction of ERα expression, single experiment or average of two or more, read-out: MCF-7 ER degradation IC50
Method in brief: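 MCF-7 human ductal carcinoma breast cells were seeded at 3.75×10^4 cells per mL (40 μL per well) in 384 well plates with phenol red free DMEM containing 2 mM L-Glutamine and 5% (v/v) Charcoal/Dextran treated foetal calf serum. After overnight culture, compounds were acoustically dispensed, incubated 18-22 hours, then cells were formaldehyde-fixed and immunostained for ERα.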

Row | SMILES | ER degradation ≥ 90% at 0.3 μM | DC50 [nM]
1 | Cc1ncsc1-c1ccc(CNC(=O)[C@@H]2C[C@@H](O)CN2C(=O)[C@@H](NC(=O)COCCCCCCOc2ccc([C@@H]3c4[nH]c5ccccc5c4C[C@@H](C)N3CC(F)F)nc2)C(C)(C)C)cc1 [Example 8, (2S,4R)-1-((S)-2-(2-((6-((6-((1S,3R)-2-(2,2-Difluoroethyl)-3-methyl-2,3,4,9-tetrahydro-1H-pyrido[3,4-b]indol-1-yl)pyridin-3-yl)oxy)hexyl)oxy)acetamido)-3,3-dimethylbutanoyl)-4-hydroxy-N-(4-(4-methylthiazol-5-yl)benzyl)pyrrolidine-2-carboxamide] | •• | 9.4
2 | Cc1ncsc1-c1ccc([C@H](C)NC(=O)[C@@H]2C[C@@H](O)CN2C(=O)[C@@H](NC(=O)CCOCCCCCCCOc2cc(F)c([C@@H]3c4[nH]c5ccccc5c4C[C@@H](C)N3CC(C)(C)F)c(F)c2)C(C)(C)C)cc1 [Example 114, (2S,4R)-1-((S)-2-(3-((7-(3,5-difluoro-4-((1R,3R)-2-(2-fluoro-2-methylpropyl)-3-methyl-2,3,4,9-tetrahydro-1H-pyrido[3,4-b]indol-1-yl)phenoxy)heptyl)oxy)propanamido)-3,3-dimethylbutanoyl)-4-hydroxy-N—((S)-1-(4-(4-methylthiazol-5-yl)phenyl)ethyl)pyrrolidine-2-carboxamide] | •• | 3.6
3 | Cc1ncsc1-c1ccc(CNC(=O)[C@@H]2C[C@@H](O)CN2C(=O)[C@@H](NC(=O)CCCCCCCCCCOc2cc(F)c([C@@H]3c4[nH]c5ccccc5c4C[C@@H](C)N3CC(C)(C)F)c(F)c2)C(C)(C)C)cc1 [Example 32, (2S,4R)-1-((S)-2-(11-(3,5-Difluoro-4-((1R,3R)-2-(2-fluoro-2-methylpropyl)-3-methyl-2,3,4,9-tetrahydro-1H-pyrido[3,4-b]indol-1-yl)phenoxy)undecanamido)-3,3-dimethylbutanoyl)-4-hydroxy-N-(4-(4-methylthiazol-5-yl)benzyl)pyrrolidine-2-carboxamide] | • | 13
4 | Cc1ncsc1-c1ccc(CNC(=O)[C@@H]2C[C@@H](O)CN2C(=O)[C@@H](NC(=O)COCCOCCCCCOc2cc(F)c([C@@H]3c4[nH]c5ccccc5c4C[C@@H](C)N3CC(C)(F)F)c(F)c2)C(C)(C)C)cc1 [Example 166, (2S,4R)-1-((S)-2-(2-(2-((5-(4-((1R,3R)-2-(2,2-Difluoropropyl)-3-methyl-2,3,4,9-tetrahydro-1H-pyrido[3,4-b]indol-1-yl)-3,5-difluorophenoxy)pentyl)oxy)ethoxy)acetamido)-3,3-dimethylbutanoyl)-4-hydroxy-N-(4-(4-methylthiazol-5-yl)benzyl)pyrrolidine-2-carboxamide] | •• | 0.8
5 | Cc1ncsc1-c1ccc(CNC(=O)[C@@H]2C[C@@H](O)CN2C(=O)[C@@H](NC(=O)CCCCCCOCCCOc2cc(F)c([C@@H]3c4[nH]c5ccccc5c4C[C@@H](C)N3CC(C)(C)F)c(F)c2)C(C)(C)C)cc1 [Example 110, (2S,4R)-1-((S)-2-(7-(3-(3,5-difluoro-4-((1R,3R)-2-(2-fluoro-2-methylpropyl)-3-methyl-2,3,4,9-tetrahydro-1H-pyrido[3,4-b]indol-1-yl)phenoxy)propoxy)heptanamido)-3,3-dimethylbutanoyl)-4-hydroxy-N-(4-(4-methylthiazol-5-yl)benzyl)pyrrolidine-2-carboxamide] | •• | 1.7
6 | Cc1ncsc1-c1ccc(CNC(=O)[C@@H]2C[C@@H](O)CN2C(=O)[C@@H](NC(=O)CCCc2ccc(COc3cc(F)c([C@@H]4c5[nH]c6ccccc6c5C[C@@H](C)N4CC(C)(C)F)c(F)c3)nc2)C(C)(C)C)cc1 [Example 141, (2S,4R)-1-((S)-2-(4-(6-((3,5-Difluoro-4-((1R,3R)-2-(2-fluoro-2-methylpropyl)-3-methyl-2,3,4,9-tetrahydro-1H-pyrido[3,4-b]indol-1-yl)phenoxy)methyl)pyridin-3-yl)butanamido)-3,3-dimethylbutanoyl)-4-hydroxy-N-(4-(4-methylthiazol-5-yl)benzyl)pyrrolidine-2-carboxamide] | • | 0.9
7 | Cc1ncsc1-c1ccc(CNC(=O)[C@@H]2C[C@@H](O)CN2C(=O)[C@@H](NC(=O)COCCC(C)(C)CCOc2cc(F)c([C@@H]3c4[nH]c5ccccc5c4C[C@@H](C)N3CC(C)(C)F)c(F)c2)C(C)(C)C)cc1 [Example 23, (2S,4R)-1-((S)-2-(2-((5-(3,5-Difluoro-4-((1R,3R)-2-(2-fluoro-2-methylpropyl)-3-methyl-2,3,4,9-tetrahydro-1H-pyrido[3,4-b]indol-1-yl)phenoxy)-3,3-dimethylpentyl)oxy)acetamido)-3,3-dimethylbutanoyl)-4-hydroxy-N-(4-(4-methylthiazol-5-yl)benzyl)pyrrolidine-2-carboxamide] | •• | 1
8 | Cc1ncsc1-c1ccc(CNC(=O)[C@@H]2C[C@@H](O)CN2C(=O)[C@@H](NC(=O)COCCOCCCCCOc2cc(F)c([C@@H]3c4[nH]c5ccccc5c4C[C@@H](C)N3CC(F)(F)F)c(F)c2)C(C)(C)C)cc1 [Example 139, (2S,4R)-1-((S)-2-(2-(2-((5-(3,5-Difluoro-4-((1R,3R)-3-methyl-2-(2,2,2-trifluoroethyl)-2,3,4,9-tetrahydro-1H-pyrido[3,4-b]indol-1-yl)phenoxy)pentyl)oxy)ethoxy)acetamido)-3,3-dimethylbutanoyl)-4-hydroxy-N-(4-(4-methylthiazol-5-yl)benzyl)pyrrolidine-2-carboxamide] | •• | 1.1
9 | Cc1ncsc1-c1ccc(CNC(=O)[C@@H]2C[C@@H](O)CN2C(=O)[C@@H](NC(=O)CNCc2ccc(COc3cc(F)c([C@@H]4c5[nH]c6ccccc6c5C[C@@H](C)N4CC(C)(C)F)c(F)c3)nc2)C(C)(C)C)cc1 [Example 146] | • | 0.6
10 | Cc1ncsc1-c1ccc([C@H](C)NC(=O)[C@@H]2C[C@@H](O)CN2C(=O)[C@@H](NC(=O)COCCCOCCCOc2cc(F)c([C@@H]3c4[nH]c5ccccc5c4C[C@@H](C)N3CC(C)(C)F)c(F)c2)C(C)(C)C)cc1 [Example 152, (2S,4R)-1-((S)-2-(2-(3-(3-(3,5-Difluoro-4-((1R,3R)-2-(2-fluoro-2-methylpropyl)-3-methyl-2,3,4,9-tetrahydro-1H-pyrido[3,4-b]indol-1-yl)phenoxy)propoxy)propoxy)acetamido)-3,3-dimethylbutanoyl)-4-hydroxy-N—((S)-1-(4-(4-methylthiazol-5-yl)phenyl)ethyl)pyrrolidine-2-carboxamide] | •• | 0.8
11 | Cc1ncsc1-c1ccc(CNC(=O)[C@@H]2C[C@@H](O)CN2C(=O)[C@@H](NC(=O)C2(OCCCCCCOc3cc(F)c([C@@H]4c5[nH]c6ccccc6c5C[C@@H](C)N4CC(C)(C)F)c(F)c3)CC2)C(C)(C)C)cc1 [Example 118, (2S,4R)-1-((S)-2-(1-((6-(3,5-difluoro-4-((1R,3R)-2-(2-fluoro-2-methylpropyl)-3-methyl-2,3,4,9-tetrahydro-1H-pyrido[3,4-b]indol-1-yl)phenoxy)hexyl)oxy)cyclopropane-1-carboxamido)-3,3-dimethylbutanoyl)-4-hydroxy-N-(4-(4-methylthiazol-5-yl)benzyl)pyrrolidine-2-carboxamide] | • | 4.7
12 | Cc1ncsc1-c1ccc(CNC(=O)[C@@H]2C[C@@H](O)CN2C(=O)[C@@H](NC(=O)COCc2ccc(C(=O)Nc3cc(F)c([C@@H]4c5[nH]c6ccccc6c5C[C@@H](C)N4CC(C)(C)F)c(F)c3)nc2)C(C)(C)C)cc1 [Example 144, N-(3,5-Difluoro-4-((1R,3R)-2-(2-fluoro-2-methylpropyl)-3-methyl-2,3,4,9-tetrahydro-1H-pyrido[3,4-b]indol-1-yl)phenyl)-5-((2-(((S)-1-((2S,4R)-4-hydroxy-2-((4-(4-methylthiazol-5-yl)benzyl)carbamoyl)pyrrolidin-1-yl)-3,3-dimethyl-1-oxobutan-2-yl)amino)-2-oxoethoxy)methyl)picolinamide] | •• | 0.5
13 | Cc1ncsc1-c1ccc([C@H](C)NC(=O)[C@@H]2C[C@@H](O)CN2C(=O)[C@@H](NC(=O)COCCOCCCCOc2cc(F)c([C@@H]3c4[nH]c5ccccc5c4C[C@@H](C)N3CC(C)(C)F)c(F)c2)C(C)(C)C)cc1 [Example 153, (2S,4R)-1-((S)-2-(2-(2-(4-(3,5-Difluoro-4-((1R,3R)-2-(2-fluoro-2-methylpropyl)-3-methyl-2,3,4,9-tetrahydro-1H-pyrido[3,4-b]indol-1-yl)phenoxy)butoxy)ethoxy)acetamido)-3,3-dimethylbutanoyl)-4-hydroxy-N—((S)-1-(4-(4-methylthiazol-5-yl)phenyl)ethyl)pyrrolidine-2-carboxamide] | •• | 0.4
